Reference: patent US10155021B2, “Antimicrobial 4-oxoquinolizines” (Emergent Product Development Gaithersburg Inc., priority 2011, dated 2018)
Converted amounts (≈) assume the structure as drawn. Where two headings read alike, the source gives them in different places.

Assays:
Klebsiella ssp KPC-3 = assay: MIC, panel of quinolone-resistant strains (CLSI); type: cell-based, Klebsiella spp; details: KPC3, CIP R, ESBL
A. baumannii J2 [1] = assay: MIC without and with sub-inhibitory polymyxin B (Example 4); type: cell-based, Acinetobacter baumannii; details: Acinetobacter baumannii, J2, A. baumannii J2, without polymyxin B, read-out: MIC without PB
A. baumannii A329 [2] = assay: MIC determination for Acinetobacter strains (Example 3); type: cell-based; details: LEV R, CIP R, MRP R, IMP R, AMK R, TET R
E. coli CTX-M-15 = assay: MIC, panel of quinolone-resistant strains (CLSI); type: cell-based; details: Escherichia coli, CTXM15; CIP R, ESBL
A. baumannii A489 [3] = assay: Preliminary MBC without and with sub-inhibitory polymyxin B (Example 4); type: cell-based, Acinetobacter baumannii; details: Acinetobacter baumannii, A489, A. baumannii A489, without polymyxin B, read-out: MBC without PB
P. aeruginosa 143-3-03 = assay: MIC, panel of quinolone-resistant strains (CLSI); type: cell-based; details: Pseudomonas aeruginosa, 143303; CIP I, POL R
A. baumannii A489 [4] = assay: MIC without and with sub-inhibitory polymyxin B (Example 4); type: cell-based, Acinetobacter baumannii; details: Acinetobacter baumannii, A489, A. baumannii A489, without polymyxin B, read-out: MIC without PB
A. baumannii A 401 = assay: MIC determination for Acinetobacter strains (Example 3); type: cell-based; details: A401, LEV R, CIP R, AMK R, TET R
A. baumannii A329 [5] = assay: Preliminary MBC without and with sub-inhibitory polymyxin B (Example 4); type: cell-based, Acinetobacter baumannii; details: Acinetobacter baumannii, A329, A. baumannii A329, without polymyxin B, read-out: MBC without PB
P. aeruginosa 1388-3-02 = assay: MIC, panel of quinolone-resistant strains (CLSI); type: cell-based; details: Pseudomonas aeruginosa, 1388302; CIP R, POL R
A. baumannii A473 [6] = assay: MIC without and with sub-inhibitory polymyxin B (Example 4); type: cell-based, Acinetobacter baumannii; details: Acinetobacter baumannii, A473, A. baumannii A473, without polymyxin B, read-out: MIC without PB
[7] = system: Acinetobacter sp. (H064200250); assay: Preliminary MBC without and with sub-inhibitory polymyxin B (Example 4); type: cell-based; details: Acinetobacter, without polymyxin B, preliminary MBC, read-out: MBC without PB
Method in brief: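 Read-out: the minimum concentration at which colonies were reduced by ca. 90% relative to positive control, usually seen as isolated colonies or a clear plate. Plates had been kept 18-20 hours at 37° C beforehand.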

[8] = system: Acinetobacter spp. H064200250; assay: MIC determination for Acinetobacter strains (Example 3); type: cell-based, Acinetobacter sp.; details: LEV R, CIP R, MRP R, IMP I
A. baumannii A401 [9] = assay: Preliminary MBC without and with sub-inhibitory polymyxin B (Example 4); type: cell-based, Acinetobacter baumannii; details: Acinetobacter baumannii, A401, A baumannii A 401, without polymyxin B, preliminary MBC, read-out: MBC without PB
E. coli 2906 = assay: MIC, panel of quinolone-resistant strains (CLSI); type: cell-based; details: Escherichia coli, CIP R
A. baumannii A473 [10] = assay: Preliminary MBC without and with sub-inhibitory polymyxin B (Example 4); type: cell-based, Acinetobacter baumannii; details: Acinetobacter baumannii, A473, A. baumannii A473, without polymyxin B, read-out: MBC without PB
A. baumannii A401 [11] = assay: MIC without and with sub-inhibitory polymyxin B (Example 4); type: cell-based, Acinetobacter baumannii; details: for MIC ratio without/with polymyxin B: A baumannii A 401, ratio MIC without PB to MIC + PB, PB 0.06 μg/ml; for MIC: Acinetobacter baumannii, A401, A baumannii A 401, without polymyxin B, read-out: MIC without PB
A. baumannii A472 [12] = assay: as above; type: cell-based, Acinetobacter baumannii; details: for MIC: Acinetobacter baumannii, A472, A. baumannii A472, without polymyxin B, read-out: MIC without PB
A. baumannii A329 [13] = assay: as above; type: cell-based, Acinetobacter baumannii; details: Acinetobacter baumannii
Pseudomonas ssp PER-1 = assay: MIC, panel of quinolone-resistant strains (CLSI); type: cell-based, Pseudomonas spp; details: PER1, CIP R, ESBL
A. baumannii J2 [14] = assay: Preliminary MBC without and with sub-inhibitory polymyxin B (Example 4); type: cell-based, Acinetobacter baumannii; details: Acinetobacter baumannii, J2, A. baumannii J2, without polymyxin B, preliminary MBC, read-out: MBC without PB
A. baumannii A472 [15] = assay: as above; type: cell-based, Acinetobacter baumannii; details: Acinetobacter baumannii, A472, A. baumannii A472, without polymyxin B, 1st experiment, read-out: MBC without PB
[16] = system: resistant strains of A. baumannii and one strain of Acinetobacter sp.; assay: MIC without and with sub-inhibitory polymyxin B, whole panel / MIC ranges (Example 4; also strains not listed separately); type: cell-based; details: Acinetobacter baumannii
A. baumannii A390 = assay: Preliminary MBC without and with sub-inhibitory polymyxin B (Example 4); type: cell-based, Acinetobacter baumannii; details: Acinetobacter baumannii, A390, A. baumannii A390, without polymyxin B, preliminary MBC, read-out: MBC without PB
[17] = Acinetobacter spp. H064200250 (OXA51), 2nd experiment
[18] = Acinetobacter spp. H064200250, 1st experiment
[19] = A329, A. baumannii A329, without polymyxin B, 1st experiment, read-out: MIC without PB
[20] = A329, A. baumannii A329, without polymyxin B, 2nd experiment, visual reading, read-out: MIC without PB

Structure (SMILES) | MIC (A. baumannii J2 [1]; 1st experiment) | MIC (A. baumannii J2 [1]; 2nd experiment, visual reading) | MIC (A. baumannii A329 [2]) | MBC (A. baumannii A489 [3]; 1st experiment) | MBC (A. baumannii A489 [3]; 2nd experiment) | MIC (A. baumannii A489 [4]; 1st experiment) | MIC (A. baumannii A489 [4]; 2nd experiment, visual reading) | MIC (A. baumannii A 401) | MBC (A. baumannii A329 [5]; 1st experiment) | MIC (A. baumannii A473 [6]; 1st experiment) | MIC (A. baumannii A473 [6]; 2nd experiment, visual reading) | MBC [7, 17] | MBC [7, 18] | MIC [8] | MBC (A. baumannii A401 [9]; 2nd experiment) | MBC (A. baumannii A401 [9]; 1st experiment) | MBC (A. baumannii A473 [10]; 1st experiment) | MBC (A. baumannii A473 [10]; 2nd experiment) | MIC ratio without/with polymyxin B (A. baumannii A401 [11]; 2nd experiment) | MIC (A. baumannii A401 [11]; 1st experiment) | other results
Cc1c(-c2cc(Cl)c(N)c(Cl)c2)ccn2c(=O)c(C(=O)O)cc(C3CC3)c12 [Compound 3, 8-(3,5-dichloro-4-amino-phenyl)-1-cyclopropyl-9-methyl-4-oxo-quinolizine-3-carboxylic acid] | 8 µg/mL (≈ 19.8 µM) | 32 µg/mL (≈ 79.4 µM) | 16 µg/mL (≈ 39.7 µM) | 2 µg/mL (≈ 4.96 µM) | 4 µg/mL (≈ 9.92 µM) | 4 µg/mL (≈ 9.92 µM) | 4 µg/mL (≈ 9.92 µM) | 8 µg/mL (≈ 19.8 µM) | 16 µg/mL (≈ 39.7 µM) | 4 µg/mL (≈ 9.92 µM) | 8 µg/mL (≈ 19.8 µM) | 16 µg/mL (≈ 39.7 µM) | 8 µg/mL (≈ 19.8 µM) | 8 µg/mL (≈ 19.8 µM) | 16 µg/mL (≈ 39.7 µM) | 4 µg/mL (≈ 9.92 µM) | 4 µg/mL (≈ 9.92 µM) | 8 µg/mL (≈ 19.8 µM) | 128 µg/mL | 8 µg/mL (≈ 19.8 µM) | MIC (Klebsiella ssp KPC-3): 8 µg/mL (≈ 19.8 µM); MIC (E. coli CTX-M-15): > 32 µg/mL; MIC (P. aeruginosa 143-3-03): 4 µg/mL (≈ 9.92 µM); MBC (A. baumannii A329 [5]; 2nd experiment): 32 µg/mL (≈ 79.4 µM); MIC (P. aeruginosa 1388-3-02): 8 µg/mL (≈ 19.8 µM); MIC (E. coli 2906): > 32 µg/mL; MIC (A. baumannii A401 [11]; 2nd experiment, visual reading): 16 µg/mL (≈ 39.7 µM); MIC ratio without/with polymyxin B (A. baumannii A472 [12]; A. baumannii A472, ratio MIC without PB to MIC + PB, PB […], 2nd experiment): ≥ 1020 µg/mL; MIC (A. baumannii A472 [12]; 1st experiment): 32 µg/mL (≈ 79.4 µM); MIC (A. baumannii A329 [13]; [19]): 16 µg/mL (≈ 39.7 µM); MIC (A. baumannii A329 [13]; [20]): 16 µg/mL (≈ 39.7 µM); MIC (A. baumannii A329 [13]; A329, read-out: MIC +0.06 μg/ml PB, read with alamar blue, A. baumannii A329, +0.06 μg/ml polymyxin B, 2nd experiment, MIC read with alamar blue): 1 µg/mL; MIC (Pseudomonas ssp PER-1): 32 µg/mL (≈ 79.4 µM); MBC (A. baumannii J2 [14]; 2nd experiment): 32 µg/mL (≈ 79.4 µM); MBC (A. baumannii J2 [14]; 1st experiment): 8 µg/mL (≈ 19.8 µM)
Cc1c(-c2ccc(N)c(F)c2)ccn2c(=O)c(C(=O)O)cc(C3CC3)c12 [Compound 1, 8-(3-fluoro-4-amino-phenyl)-1-cyclopropyl-9-methyl-4-oxo-quinolizine-3-carboxylic acid] | 8 µg/mL (≈ 22.7 µM) | 16 µg/mL (≈ 45.4 µM) | 16 µg/mL (≈ 45.4 µM) | 8 µg/mL (≈ 22.7 µM) | 16 µg/mL (≈ 45.4 µM) | 4 µg/mL (≈ 11.4 µM) | 16 µg/mL (≈ 45.4 µM) | 4 µg/mL (≈ 11.4 µM) | 16 µg/mL (≈ 45.4 µM) | 4 µg/mL (≈ 11.4 µM) | 8 µg/mL (≈ 22.7 µM) | 32 µg/mL (≈ 90.8 µM) | 8 µg/mL (≈ 22.7 µM) | 8 µg/mL (≈ 22.7 µM) | 8 µg/mL (≈ 22.7 µM) | 16 µg/mL (≈ 45.4 µM) | 4 µg/mL (≈ 11.4 µM) | 8 µg/mL (≈ 22.7 µM) | ≥ 512 µg/mL | 4 µg/mL (≈ 11.4 µM) | MIC (A. baumannii A401 [11]; 2nd experiment, visual reading): 16 µg/mL (≈ 45.4 µM); MBC (A. baumannii A472 [15]): 8 µg/mL (≈ 22.7 µM); MIC (A. baumannii A472 [12]; 1st experiment): 8 µg/mL (≈ 22.7 µM); MIC (A. baumannii A472 [12]; 2nd experiment, visual reading): 8 µg/mL (≈ 22.7 µM); MIC ([16]; read-out: MIC range without PB 01-10-2008 n = 8, without polymyxin B, 1st experiment, 8 strains): 1 to 32 µg/mL (≈ 2.84 to 90.8 µM); MIC ([16]; without polymyxin B, 2nd experiment, 11 strains, read-out: MIC range without PB 14-10-2008 n = 11): 4 to 32 µg/mL (≈ 11.4 to 90.8 µM); MIC (A. baumannii A329 [13]; [19]): 16 µg/mL (≈ 45.4 µM); MIC (A. baumannii A329 [13]; [20]): 16 µg/mL (≈ 45.4 µM); MBC (A. baumannii A390; 2nd experiment): 16 µg/mL (≈ 45.4 µM); MBC (A. baumannii A390; 1st experiment): 16 µg/mL (≈ 45.4 µM); MBC (A. baumannii J2 [14]; 2nd experiment): 16 µg/mL (≈ 45.4 µM); MBC (A. baumannii J2 [14]; 1st experiment): 8 µg/mL (≈ 22.7 µM)
